Activity calls are given as the source filed them. The calls are words filed in the database; no cut-off is given here.
What was measured:
[1] = target: T1, Hepatocyte growth factor receptor (Homo sapiens, UniProt P08581); test: Inhibition of GST-tagged c-Met expressed in Sf9 cells
Target sequence in this assay (P08581 whole entry): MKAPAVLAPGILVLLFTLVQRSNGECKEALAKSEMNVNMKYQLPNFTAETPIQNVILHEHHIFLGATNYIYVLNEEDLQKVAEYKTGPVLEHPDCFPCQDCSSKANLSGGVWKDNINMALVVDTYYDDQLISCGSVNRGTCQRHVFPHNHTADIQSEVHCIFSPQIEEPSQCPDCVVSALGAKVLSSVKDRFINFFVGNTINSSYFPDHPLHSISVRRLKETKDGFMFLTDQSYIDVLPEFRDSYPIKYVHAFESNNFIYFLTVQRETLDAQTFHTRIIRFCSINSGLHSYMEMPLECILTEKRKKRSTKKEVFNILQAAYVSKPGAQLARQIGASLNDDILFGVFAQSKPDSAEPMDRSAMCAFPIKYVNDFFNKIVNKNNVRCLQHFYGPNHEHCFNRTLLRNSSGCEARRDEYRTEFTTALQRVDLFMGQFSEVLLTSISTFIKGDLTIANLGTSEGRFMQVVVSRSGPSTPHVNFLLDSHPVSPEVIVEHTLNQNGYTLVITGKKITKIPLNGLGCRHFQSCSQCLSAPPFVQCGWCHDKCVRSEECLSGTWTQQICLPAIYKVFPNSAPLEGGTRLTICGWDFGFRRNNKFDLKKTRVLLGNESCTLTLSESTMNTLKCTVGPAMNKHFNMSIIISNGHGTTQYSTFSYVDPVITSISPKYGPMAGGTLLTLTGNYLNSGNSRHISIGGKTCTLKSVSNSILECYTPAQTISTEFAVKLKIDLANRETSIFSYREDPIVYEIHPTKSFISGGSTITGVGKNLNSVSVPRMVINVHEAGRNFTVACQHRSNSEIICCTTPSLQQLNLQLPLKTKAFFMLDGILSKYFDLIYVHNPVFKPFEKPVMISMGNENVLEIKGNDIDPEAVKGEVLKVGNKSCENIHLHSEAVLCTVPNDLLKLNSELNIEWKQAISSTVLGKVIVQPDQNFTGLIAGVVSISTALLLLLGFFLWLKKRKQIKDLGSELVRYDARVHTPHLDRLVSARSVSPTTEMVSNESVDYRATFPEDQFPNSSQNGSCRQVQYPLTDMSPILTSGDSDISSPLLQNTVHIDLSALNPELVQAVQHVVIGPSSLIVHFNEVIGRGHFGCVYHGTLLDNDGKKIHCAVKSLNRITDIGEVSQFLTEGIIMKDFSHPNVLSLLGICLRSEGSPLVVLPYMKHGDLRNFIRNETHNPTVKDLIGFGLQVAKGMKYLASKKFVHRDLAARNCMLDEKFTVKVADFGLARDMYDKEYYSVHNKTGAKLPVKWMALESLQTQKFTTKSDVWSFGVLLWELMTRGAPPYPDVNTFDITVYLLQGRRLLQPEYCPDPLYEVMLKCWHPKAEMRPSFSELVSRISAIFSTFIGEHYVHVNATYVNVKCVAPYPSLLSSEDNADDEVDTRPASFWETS

[2] = Inhibition of GST-tagged VEGFR expressed in Sf9 cells
[3] = target: T1, Hepatocyte growth factor receptor; test: Inhibition of TPR-Met assessed as autophosphorylation
Target sequence in this assay (P08581 25-1390 limits assumed): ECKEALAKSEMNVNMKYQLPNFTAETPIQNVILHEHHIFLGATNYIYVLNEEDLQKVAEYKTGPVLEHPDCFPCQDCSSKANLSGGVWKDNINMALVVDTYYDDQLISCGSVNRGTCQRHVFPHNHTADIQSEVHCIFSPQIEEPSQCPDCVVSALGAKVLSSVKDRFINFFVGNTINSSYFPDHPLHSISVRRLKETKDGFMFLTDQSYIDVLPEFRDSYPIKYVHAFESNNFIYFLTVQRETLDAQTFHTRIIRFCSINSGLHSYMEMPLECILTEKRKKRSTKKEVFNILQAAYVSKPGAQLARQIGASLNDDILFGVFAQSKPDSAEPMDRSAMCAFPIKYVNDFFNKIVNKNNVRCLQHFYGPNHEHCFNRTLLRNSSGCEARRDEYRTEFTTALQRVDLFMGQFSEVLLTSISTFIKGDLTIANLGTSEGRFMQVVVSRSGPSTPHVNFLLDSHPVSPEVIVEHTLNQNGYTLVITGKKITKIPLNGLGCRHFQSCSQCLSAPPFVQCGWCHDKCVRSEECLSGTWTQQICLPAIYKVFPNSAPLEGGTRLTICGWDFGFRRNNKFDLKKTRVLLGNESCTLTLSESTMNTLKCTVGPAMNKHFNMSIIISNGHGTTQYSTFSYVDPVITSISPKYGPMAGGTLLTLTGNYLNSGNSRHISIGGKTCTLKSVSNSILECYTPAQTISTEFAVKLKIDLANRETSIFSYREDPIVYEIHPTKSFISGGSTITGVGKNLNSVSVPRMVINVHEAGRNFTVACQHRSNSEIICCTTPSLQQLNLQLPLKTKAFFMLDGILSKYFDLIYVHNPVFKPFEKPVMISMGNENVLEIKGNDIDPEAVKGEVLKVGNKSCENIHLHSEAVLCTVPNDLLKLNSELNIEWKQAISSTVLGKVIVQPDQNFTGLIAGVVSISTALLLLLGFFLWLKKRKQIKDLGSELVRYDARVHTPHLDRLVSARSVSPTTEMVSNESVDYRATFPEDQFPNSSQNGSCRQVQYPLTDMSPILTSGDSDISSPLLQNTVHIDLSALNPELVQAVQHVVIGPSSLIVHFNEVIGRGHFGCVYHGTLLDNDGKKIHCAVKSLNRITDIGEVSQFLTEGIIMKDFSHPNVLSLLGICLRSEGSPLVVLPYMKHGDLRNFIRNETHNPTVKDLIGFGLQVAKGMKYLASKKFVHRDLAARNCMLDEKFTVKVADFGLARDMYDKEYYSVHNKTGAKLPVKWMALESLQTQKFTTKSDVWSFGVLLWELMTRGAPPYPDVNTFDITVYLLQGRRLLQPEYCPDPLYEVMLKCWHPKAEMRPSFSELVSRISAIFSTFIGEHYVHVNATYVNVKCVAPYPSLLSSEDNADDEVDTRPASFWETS

[4] = Half life in rat; assay type: ADME, organism-based; conditions: in vivo
[5] = Bioavailability in rat; assay type: ADME, organism-based; conditions: in vivo
[6] = Inhibition of VEGF-induced ERK phosphorylation in HUVEC; assay type: cell-based; conditions: Homo sapiens
HUVEC [7] = test: Inhibition of VEGF-stimulated proliferation of HUVEC cells; assay type: functional, cell-based; conditions: Homo sapiens
HUVEC [8] = test: Antiangiogenic activity against HUVEC cell assessed as inhibition of tubule formation; assay type: functional, cell-based; conditions: Homo sapiens
HUVEC [9] = test: Antiangiogenic activity against HUVEC cell assessed as inhibition of VEGF-dependent tubule formation; assay type: functional, Homo sapiens
[10] = target: ALK tyrosine kinase receptor (Homo sapiens) (UniProt Q9UM73); test: Inhibition of ALK at 100 uM
[11] = target: Aurora kinase A (Homo sapiens) (UniProt O14965); test: Inhibition of Aurora A at 100 uM
[12] = target: Cyclin-dependent kinase 2/cyclin E (Homo sapiens) (UniProt P24864+P24941+O96020); test: Inhibition of CDK2/cyclin E at 100 uM; assay type: protein-complex assay
[13] = target: Serine/threonine-protein kinase Chk1 (Homo sapiens) (UniProt O14757); test: Inhibition of CHK1 at 100 uM
[14] = target: Serine/threonine-protein kinase Chk2 (Homo sapiens) (UniProt O96017); test: Inhibition of CHK2 at 100 uM
[15] = target: Mast/stem cell growth factor receptor Kit (Homo sapiens) (UniProt P10721); test: Inhibition of c-kit at 100 uM
[16] = target: RAF proto-oncogene serine/threonine-protein kinase (Homo sapiens) (UniProt P04049); test: Inhibition of c-Raf at 100 uM
[17] = target: Proto-oncogene tyrosine-protein kinase Src (Homo sapiens) (UniProt P12931); test: Inhibition of c-SRC at 100 uM
[18] = target: Epidermal growth factor receptor (Homo sapiens) (UniProt P00533); test: Inhibition of EGFR at 100 uM
[19] = target: Fibroblast growth factor receptor 1 (Homo sapiens) (UniProt P11362); test: Inhibition of FGFR1 at 100 uM
[20] = target: Receptor-type tyrosine-protein kinase FLT3 (Homo sapiens) (UniProt P36888); test: Inhibition of Flt3 at 100 uM
[21] = target: Glycogen synthase kinase-3 beta (Homo sapiens) (UniProt P49841); test: Inhibition of GSK3-beta at 100 uM
[22] = target: Inhibitor of nuclear factor kappa-B kinase subunit beta (Homo sapiens) (UniProt O14920); test: Inhibition of IKK-beta at 100 uM
[23] = target: Tyrosine-protein kinase JAK2 (Homo sapiens) (UniProt O60674); test: Inhibition of JAK2 at 100 uM
[24] = target: Tyrosine-protein kinase JAK3 (Homo sapiens) (UniProt P52333); test: Inhibition of JAK3 at 100 uM
[25] = target: Dual specificity mitogen-activated protein kinase kinase 1 (Homo sapiens) (UniProt Q02750); test: Inhibition of MEK1 at 100 uM
[26] = target: T1, Hepatocyte growth factor receptor; test: Inhibition of Met at 100 uM
Target sequence in this assay (P08581 whole entry): as the sequence (P08581 whole entry) above

[27] = target: Platelet-derived growth factor receptor alpha (Homo sapiens) (UniProt P16234); test: Inhibition of PDGFRalpha at 100 uM
[28] = target: Platelet-derived growth factor receptor beta (Homo sapiens) (UniProt P09619); test: Inhibition of PDGFRbeta at 100 uM
[29] = target: RAC-alpha serine/threonine-protein kinase (Homo sapiens) (UniProt P31749); test: Inhibition of PKBalpha at 100 uM
[30] = target: Proto-oncogene tyrosine-protein kinase receptor Ret (Homo sapiens) (UniProt P07949); test: Inhibition of Ret at 100 uM
[31] = target: Macrophage-stimulating protein receptor (Homo sapiens) (UniProt Q04912); test: Inhibition of Ron at 100 uM
[32] = target: Angiopoietin-1 receptor (Homo sapiens) (UniProt Q02763); test: Inhibition of Tie-2 at 100 uM
[33] = target: High affinity nerve growth factor receptor (Homo sapiens) (UniProt P04629); test: Inhibition of TrkA at 100 uM
[34] = target: Vascular endothelial growth factor receptor 1 (Homo sapiens) (UniProt P17948); test: Inhibition of VEGFR1 at 100 uM
[35] = target: Vascular endothelial growth factor receptor 2 (Homo sapiens) (UniProt P35968); test: Inhibition of VEGFR2 at 100 uM
[36] = target: Vascular endothelial growth factor receptor 3 (Homo sapiens) (UniProt P35916); test: Inhibition of VEGFR3 at 100 uM
MKN-45 = test: Antiproliferative activity against human MKN45 cells after 72 hrs by MTT assay; assay type: functional, cell-based; conditions: MKN-45, 72 h
HCT-116 = test: Antiproliferative activity against human HCT116 cells after 72 hrs by MTT assay; assay type: functional, cell-based; conditions: HCT-116, 72 h
HMEC = test: Antiproliferative activity against human HMEC cells after 72 hrs by MTT assay; assay type: functional, cell-based
HOS-TE85 = test: Antitumor activity against human MNNG-HOS cell xenografted mouse assessed as tumor regression at 40 mg/kg, po after 12 days; assay type: functional, organism-based; set-up: dose 40 mg/kg

Chain of Vascular endothelial growth factor receptor 2 (Homo sapiens) (P35968 whole entry): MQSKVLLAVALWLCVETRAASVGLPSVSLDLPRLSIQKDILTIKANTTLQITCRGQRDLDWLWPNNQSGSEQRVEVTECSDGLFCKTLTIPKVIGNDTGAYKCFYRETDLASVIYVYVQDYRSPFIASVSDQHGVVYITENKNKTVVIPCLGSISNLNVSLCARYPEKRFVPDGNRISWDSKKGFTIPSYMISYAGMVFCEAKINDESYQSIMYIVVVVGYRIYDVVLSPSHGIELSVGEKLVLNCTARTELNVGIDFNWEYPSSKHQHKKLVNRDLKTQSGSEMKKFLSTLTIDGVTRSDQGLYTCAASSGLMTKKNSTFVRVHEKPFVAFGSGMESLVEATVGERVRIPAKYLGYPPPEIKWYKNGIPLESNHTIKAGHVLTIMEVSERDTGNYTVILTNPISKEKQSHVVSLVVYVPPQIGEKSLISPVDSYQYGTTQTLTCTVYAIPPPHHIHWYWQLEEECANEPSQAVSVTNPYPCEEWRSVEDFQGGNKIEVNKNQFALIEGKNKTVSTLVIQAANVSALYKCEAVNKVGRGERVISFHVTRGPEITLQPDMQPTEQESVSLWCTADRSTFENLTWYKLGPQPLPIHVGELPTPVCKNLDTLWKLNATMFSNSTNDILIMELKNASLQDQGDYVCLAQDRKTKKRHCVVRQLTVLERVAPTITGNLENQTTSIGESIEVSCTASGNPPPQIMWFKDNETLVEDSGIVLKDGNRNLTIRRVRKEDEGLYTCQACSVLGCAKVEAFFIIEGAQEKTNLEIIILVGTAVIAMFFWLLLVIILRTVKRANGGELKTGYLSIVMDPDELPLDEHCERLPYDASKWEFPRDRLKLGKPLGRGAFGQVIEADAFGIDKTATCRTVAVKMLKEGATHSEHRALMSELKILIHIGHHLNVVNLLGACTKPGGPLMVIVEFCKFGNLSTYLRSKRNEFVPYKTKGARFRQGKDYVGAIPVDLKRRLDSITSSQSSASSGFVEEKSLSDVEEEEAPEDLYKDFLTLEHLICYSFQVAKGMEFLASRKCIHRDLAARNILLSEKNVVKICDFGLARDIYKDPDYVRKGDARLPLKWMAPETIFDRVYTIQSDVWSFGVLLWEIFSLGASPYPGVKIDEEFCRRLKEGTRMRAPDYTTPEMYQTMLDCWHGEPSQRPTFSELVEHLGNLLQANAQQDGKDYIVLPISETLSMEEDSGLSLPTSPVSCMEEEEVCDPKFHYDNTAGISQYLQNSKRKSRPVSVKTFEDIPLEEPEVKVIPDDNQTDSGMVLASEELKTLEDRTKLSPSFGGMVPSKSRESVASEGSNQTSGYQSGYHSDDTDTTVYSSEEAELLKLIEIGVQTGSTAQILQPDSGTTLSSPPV
Chain of Glycogen synthase kinase-3 beta (Homo sapiens) (P49841 whole entry, looked up): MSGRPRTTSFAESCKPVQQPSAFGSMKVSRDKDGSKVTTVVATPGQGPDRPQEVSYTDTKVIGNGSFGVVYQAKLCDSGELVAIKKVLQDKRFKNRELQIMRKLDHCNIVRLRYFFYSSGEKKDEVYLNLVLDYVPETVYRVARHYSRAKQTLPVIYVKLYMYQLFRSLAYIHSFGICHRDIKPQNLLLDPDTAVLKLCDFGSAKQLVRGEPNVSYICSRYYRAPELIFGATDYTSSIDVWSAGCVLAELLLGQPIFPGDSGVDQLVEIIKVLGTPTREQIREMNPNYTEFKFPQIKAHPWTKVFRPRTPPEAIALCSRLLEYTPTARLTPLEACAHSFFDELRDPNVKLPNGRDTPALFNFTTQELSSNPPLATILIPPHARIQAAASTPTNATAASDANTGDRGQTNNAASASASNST
Chain of Serine/threonine-protein kinase Chk2 (Homo sapiens) (O96017 whole entry): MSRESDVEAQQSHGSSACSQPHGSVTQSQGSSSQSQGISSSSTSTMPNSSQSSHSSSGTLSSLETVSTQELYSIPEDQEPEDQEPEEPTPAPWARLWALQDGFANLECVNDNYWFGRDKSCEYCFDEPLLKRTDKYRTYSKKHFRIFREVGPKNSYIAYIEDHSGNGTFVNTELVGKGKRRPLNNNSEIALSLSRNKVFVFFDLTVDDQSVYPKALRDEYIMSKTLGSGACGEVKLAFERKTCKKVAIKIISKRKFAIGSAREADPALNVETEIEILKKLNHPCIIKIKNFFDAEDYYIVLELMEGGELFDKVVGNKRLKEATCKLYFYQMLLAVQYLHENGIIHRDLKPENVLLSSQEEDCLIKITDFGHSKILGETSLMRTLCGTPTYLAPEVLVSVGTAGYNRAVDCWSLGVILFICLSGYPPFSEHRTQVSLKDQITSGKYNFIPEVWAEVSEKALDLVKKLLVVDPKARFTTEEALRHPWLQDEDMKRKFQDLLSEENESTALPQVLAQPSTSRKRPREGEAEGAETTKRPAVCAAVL

COc1cc2c(Oc3ccc(NC(=O)N4CCN(c5ccccc5)C4=O)cc3F)ccnc2cc1OCCCN1CCOCC1
IC50 [1]: 50 nM
IC50 [2]: 30 nM
IC50 ([3]; read-out: IC50): 50 nM

COc1cc2nccc(Oc3ccc(NC(=O)N4CCN(c5cccc(F)c5)C4=O)cc3F)c2cc1OC
IC50 [1]: 50 nM
IC50 [2]: 15 nM
IC50 ([3]; read-out: IC50): 200 nM

COc1cc2nccc(Oc3ccc(NC(=O)N4CCN(c5ccccc5)C4=O)c(F)c3)c2cc1OC
IC50 [1]: 30 nM
IC50 [2]: 50 nM
IC50 ([3]; read-out: IC50): > 10000 nM

C=CCN1CCN(C(=O)Nc2ccc(Oc3ccnc4cc(OC)c(OC)cc34)c(F)c2)C1=O
IC50 [1]: 200 nM
IC50 [2]: 630 nM
IC50 [3]: Not Active

COc1cc2nccc(Oc3ccc(NC(=O)N4CCN(c5ccc(F)cc5)C4=O)cc3F)c2cc1OC
IC50 [1]: 30 nM
IC50 [2]: 20 nM
IC50 ([3]; read-out: IC50): 90 nM

COc1cc2nccc(Oc3ccc(NC(=O)N4CCN(c5ccc(F)cc5)C4=O)cc3)c2cc1OC
IC50 [1]: 50 nM
IC50 [2]: 30 nM
IC50 ([3]; read-out: IC50): 150 nM

COc1cc2nccc(Oc3ccc(NC(=O)N4CCN(c5ccccc5)C4=O)nc3)c2cc1OC
IC50 [1]: 30 nM
IC50 [2]: 20 nM
IC50 ([3]; read-out: IC50): > 10000 nM

COc1cc2nccc(Oc3ccc(NC(=O)N4CCN(c5ccccc5)C4=O)cn3)c2cc1OC
IC50 [1]: 60 nM
IC50 [2]: 1300 nM
IC50 ([3]; read-out: IC50): 5000 nM

COc1cc2nccc(Oc3ccc(NC(=O)N4CCN(c5ccccc5)C4=O)cc3F)c2cc1OC
IC50 [2]: 10 nM
IC50 ([3]; read-out: IC50): 90 nM
half-life [4]: 4.4 h
bioavailability [5]: 22%
IC50 [6]: < 1 nM
IC50 (HUVEC [7]): 2 nM
IC50 (HUVEC [8]): 8 nM
inhibition (INH) (HUVEC [9]): 99.4%
inhibition [10]: 0%
inhibition [11]: 0%
inhibition [12]: 0%
inhibition [13]: 0%
inhibition [14]: 1%
inhibition [15]: 12%
inhibition [16]: 42%
inhibition [17]: 7%
inhibition [18]: 0%
inhibition [19]: 11%
inhibition [20]: 72%
inhibition [21]: 0%
inhibition [22]: 0%
inhibition [23]: 4%
inhibition [24]: 6%
inhibition [25]: 0%
inhibition [26]: 100%
inhibition [27]: 26%
inhibition [28]: 6%
inhibition [29]: 0%
inhibition [30]: 96%
inhibition [31]: 92%
inhibition [32]: 23%
inhibition [33]: 94%
inhibition [34]: 100%
inhibition [35]: 92%
inhibition [36]: 93%
IC50 (MKN-45): 8 nM
IC50 (HCT-116): 300 nM
IC50 (HMEC): > 2500 nM
Activity (HOS-TE85): Active

Cn1cnc(-c2cc3nccc(Oc4ccc(NC(=S)NC(=O)Cc5ccccc5)cc4F)c3s2)c1
IC50 [2]: 26 nM

COc1cc2nccc(N(C)c3ccc(NC(=O)N4CCN(c5ccccc5)C4=O)cc3F)c2cc1OC
IC50 [1]: 400 nM
IC50 [2]: 5900 nM
IC50 [3]: Not Active

COc1cc2nccc(Oc3ccc(NC(=S)NC(=O)Cc4ccccc4)cc3F)c2cc1OC
IC50 [2]: 32 nM

COc1cc2c(Oc3ccc(NC(=O)N4CCN(c5ccccc5)C4=O)cc3F)ccnc2cc1OCC1CCNCC1
IC50 [1]: 40 nM
IC50 [2]: 20 nM
IC50 ([3]; read-out: IC50): 80 nM

COc1cc2c(Oc3ccc(NC(=O)N4CCN(c5ccccc5)C4=O)cc3F)ccnc2cc1OCC1CCN(C)CC1
IC50 [1]: 50 nM
IC50 [2]: 20 nM
IC50 ([3]; read-out: IC50): 130 nM

COc1cc2nccc(Oc3ccc(NC(=O)N4CCN(C5CCCCC5)C4=O)cc3F)c2cc1OC
IC50 [1]: 110 nM
IC50 [2]: 210 nM
IC50 ([3]; read-out: IC50): 860 nM

Cn1cnc(-c2cc3nccc(Oc4ccc(NC(=O)N5CCN(c6ccccc6)C5=O)cc4F)c3s2)c1
IC50 [2]: 8 nM

COCCOc1cc2nccc(Oc3ccc(NC(=O)N4CCN(c5ccccc5)C4=O)cc3F)c2cc1OCCOC
IC50 [1]: 60 nM
IC50 [2]: 40 nM
IC50 ([3]; read-out: IC50): 20 nM

COc1cc2nccc(Oc3ccc(NC(=O)N4CCN(c5ccc(F)cc5)C4=O)cc3F)c2cc1OCCCN1CCOCC1
IC50 [1]: 40 nM
IC50 [2]: 120 nM
IC50 ([3]; read-out: IC50): 30 nM

COc1cc2nccc(Oc3ccc(NC(=O)N4CCN(c5ccccn5)C4=O)cc3F)c2cc1OC
IC50 [1]: 40 nM
IC50 [2]: 230 nM
IC50 [3]: Not Active

COc1cc2nccc(Oc3ccc(NC(=O)N4CCN(c5ccccc5F)C4=O)cc3F)c2cc1OC
IC50 [1]: 60 nM
IC50 [2]: 20 nM
IC50 ([3]; read-out: IC50): 370 nM

COc1cc2nccc(Sc3ccc(NC(=O)N4CCN(c5ccc(F)cc5)C4=O)cc3)c2cc1OC
IC50 [1]: 40 nM
IC50 [2]: 100 nM
IC50 ([3]; read-out: IC50): 80 nM

COc1cc2nccc(Nc3ccc(NC(=O)N4CCN(c5ccccc5)C4=O)cc3F)c2cc1OC
IC50 [1]: 200 nM
IC50 [2]: 1400 nM
IC50 [3]: Not Active

COc1cc2nccc(Oc3ccc(NC(=O)N4CCN(N5CCCCC5)C4=O)cc3F)c2cc1OC
IC50 [1]: 60 nM
IC50 [2]: 370 nM
IC50 ([3]; read-out: IC50): 640 nM

COc1cc2ncnc(Nc3ccc(NC(=O)N4CCN(c5ccccc5)C4=O)cc3F)c2cc1OC
IC50 [1]: 600 nM
IC50 [2]: > 2000 nM
IC50 ([3]; read-out: IC50): 3300 nM

COc1cc2nccc(Oc3ccc(NC(=O)N4CCN(c5ccccc5OC)C4=O)cc3F)c2cc1OC
IC50 [1]: 50 nM
IC50 [2]: 30 nM
IC50 ([3]; read-out: IC50): 150 nM

COc1cc2nccc(Oc3ccc(NC(=O)N4CCN(c5ccccc5)C4=O)cc3)c2cc1OC
IC50 [1]: 50 nM
IC50 [2]: 30 nM
IC50 ([3]; read-out: IC50): 240 nM

COc1cc2ncnc(Oc3ccc(NC(=O)N4CCN(c5ccccc5)C4=O)cc3F)c2cc1OC
IC50 [1]: 40 nM
IC50 [2]: 30 nM
IC50 ([3]; read-out: IC50): > 1000 nM

COc1cc2nccc(Oc3ccc(NC(=O)N4CCN(c5ccncc5)C4=O)cc3F)c2cc1OC
IC50 [1]: 100 nM
IC50 [2]: 600 nM
IC50 ([3]; read-out: IC50): 630 nM

COc1cc2ncnc(N(C)c3ccc(NC(=O)N4CCN(c5ccccc5)C4=O)cc3F)c2cc1OC
IC50 [1]: 4000 nM
IC50 [2]: > 2000 nM
IC50 ([3]; read-out: IC50): > 10000 nM

From ChEMBL document CHEMBL1154652, “N-(4-(6,7-Disubstituted-quinolin-4-yloxy)-3-fluorophenyl)-2-oxo-3-phenylimidazolidine-1-carboxamides: a novel series of dual c-Met/VEGFR2 receptor tyrosine kinase inhibitors” (Bioorg Med Chem Lett, 2009)
